Reference: patent US9745322B2, “Compounds for the treatment of hepatitis C” (priority 2013, dated 2017)
Read-outs that look alike come from different tables or passages of the source.

Test system: HCV pseudoparticles, genotype 1a (H77C) E1 and E2 envelope
Assay: HCV pseudoparticle infection assay (luciferase reporter, Huh7 cells)
Type: cell-based, HCV genotype 1a (H77C)
Details: Hepatitis C virus, Huh-7, 48 h, read-out: EC50 (nM) 1a (H77C), HCV pseudoparticles genotype 1a H77C, Huh7 cells, luciferase 2 days after infection

## COC(=O)[C@H](CNC(=O)C(=O)N(C)C)NC(=O)c1ccc2cc1OCCCCCCOc1ccc(cc1)CNc1nc(nc(OCC(F)(F)F)n1)N2 [Example 1001]
Class symbol
  EC50: 0.1 to 100 nM
Numeric value
  EC50: 0.624 nM

## CN(C)C(=O)C(=O)NC[C@H](NC(=O)c1ccc2cc1OCCCCCCOc1ccc(cc1)CNc1nc(nc(OCC(F)(F)F)n1)N2)C(=O)O [Example 1004]
Class symbol
  EC50: 0.1 to 100 nM

## CNC(=O)C(=O)NC[C@H](NC(=O)c1ccc2cc1OCCCCCCOc1ccc(cc1)CNc1nc(nc(OCC(F)(F)F)n1)N2)C(=O)OC [Example 1002]
Class symbol
  EC50: 0.1 to 100 nM

## COC(=O)[C@H](CNC(=O)C(N)=O)NC(=O)c1ccc2cc1OCCCCCCOc1ccc(cc1)CNc1nc(nc(OCC(F)(F)F)n1)N2 [Example 1003]
Class symbol
  EC50: 0.1 to 100 nM

## CNC(=O)C(=O)NC[C@H](NC(=O)c1ccc2cc1OCCCCCCOc1ccc(cc1)CNc1nc(nc(OCC(F)(F)F)n1)N2)C(=O)O [Example 1005]
Class symbol
  EC50: 0.1 to 100 nM
Numeric value
  EC50: 2.47 nM
